The molecules below were run against rhesus (Macacca Mulatta) H3 receptor (Macaca mulatta, UniProt Q865E1) (assay: Rhesus H3 radioligand binding assay ([3H]-Methylhistamine, WGA SPA)). Conditions: displacement of [3H]-Methylhistamine (2 nM) from rhesus H3 receptor membranes; Cheng-Prusoff.
Design: species or system rhesus monkey (Macacca Mulatta)
Procedure: (Genbank #AY231164). Stably transfected cultures were amplified in tissue culture flasks by standard tissue culture methods and induced to express rhesus H3 by exposure to 500 ng/ml tetracycline (Cellgro) for 24 hours. After induction, cells were dissociated from flasks utilizing Cell Stripper (Cellgro). Cells were centrifuged (1K×g, 5 min) and pellet frozen in an ethanol-dry ice bath to disrupt cell membranes. Frozen cell pellet was re-suspended in 5 mM HEPES (pH 7.4, Invitrogen) at 10 ml/1000 cm2 of harvested cells. The cell suspension was drawn through an 18 gauge needle (2-3×) followed by a 23 gauge needle (2-3×) to further disrupt cell membranes. The cell suspension was centrifuged (40K×g, 30 min). Cell membrane pellet was re-suspended in 5 mM HEPES (pH 7.4, Invitrogen) at a final protein concentration of 10 mg/ml. Rhesus H3 membranes were stored under liquid nitrogen prior to use in [3H]-Methylhistamine and GTPγS radioligand binding assays.
Rhesus H3 radioligand binding assay was performed using rhesus H3 receptor membranes (prepared as described above), [3H]-Methylhistamine (Perkin Elmer) and WGA SPA beads (wheat germ agglutinin scintillation proximity assay) beads (Amersham). The assay was performed in 96-well Opti-Plates (Packard). Each reaction contained 50 μl rhesus H3 membranes (20-30 μg total protein), 50 μl WGA SPA beads (0.1 μg) and 50 μl of 83 Ci/mmol [^3H]-Methylhistamine (final concentration 2 nM) and 50 μl of tested compound. The compounds of this invention and/or vehicle were diluted with binding buffer from 10 mM DMSO stocks. Assay plates were sealed with TopSeal (Perkin Elmer) and mixed on shaker (25° C., 1 hour). Assay plates were read on TopCount scintillation counter (Packard). Results were analyzed by Hill transformation and Ki values were determined by Cheng-Prusoff equation.

Sequence of rhesus (Macacca Mulatta) H3 receptor (Q865E1 1-445): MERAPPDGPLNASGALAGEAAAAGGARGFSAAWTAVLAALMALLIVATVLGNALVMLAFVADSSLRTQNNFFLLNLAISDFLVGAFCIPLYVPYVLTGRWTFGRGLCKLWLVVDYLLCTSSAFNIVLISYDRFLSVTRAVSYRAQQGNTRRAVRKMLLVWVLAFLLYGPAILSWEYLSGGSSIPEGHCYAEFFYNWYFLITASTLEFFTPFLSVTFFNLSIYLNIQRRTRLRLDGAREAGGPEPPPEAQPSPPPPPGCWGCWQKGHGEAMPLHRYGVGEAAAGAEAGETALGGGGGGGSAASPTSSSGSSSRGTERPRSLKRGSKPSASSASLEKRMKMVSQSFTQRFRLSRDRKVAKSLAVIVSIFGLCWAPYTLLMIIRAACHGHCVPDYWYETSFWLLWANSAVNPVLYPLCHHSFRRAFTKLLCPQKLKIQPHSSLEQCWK

| Ki | Structure (SMILES) |
| --- | --- |
| 75.2 nM | CC1CCCN1C1CC[C@H](c2ccc(N3CCC4(CCC(O)CC4)C3=O)cc2)C1 (stereo partly drawn) [Example 4, 8-Hydroxy-2-{4-[3-(2-methyl-pyrrolidin-1-yl)-cyclopentyl]-phenyl}-2-aza-spiro[4.5]decan-1-one] |
| 12.4 nM | C[C@H]1CCCN1C1CC[C@H](c2ccc(NS(=O)(=O)c3ccc(F)cc3)cc2)C1 (stereo partly drawn) [Example 24, 4-Fluoro-N-{4-[(S)-3-((S)-2-methyl-pyrrolidin-1-yl)-cyclopentyl]-phenyl}-benzenesulfonamide] |
| 6.88 nM | C[C@H]1CCCN1C1CC=C(c2ccc(NC(=O)OCc3ccccc3)c(F)c2)CC1 (stereo partly drawn) [Example 21, {2-Fluoro-4-[4-((S)-2-methyl-pyrrolidin-1-yl)-cyclohex-1-enyl]-phenyl}-carbamic acid benzyl ester] |

— US9453023B2, “Substituted phenyl cycloalkyl pyrrolidine (piperidine) spirolactams and amides, preparation and therapeutic use thereof” (SANOFI, priority 2010, dated 2016)
